The text below walks through data of publication PMC12350162, “Electron flow in hydrogenotrophic methanogens under nickel limitation” (Nature, 2025).

For test [1], the target named is T1, Elp–Hdr complex, HdrA site (bifurcating FAD) (Methanothermobacter marburgensis, UniProt Q50756).
T1 construct: with H(2):CoB-CoM heterodisulfide,ferredoxin reductase subunit B; H(2):CoB-CoM heterodisulfide,ferredoxin reductase subunit C; F420-dependent electron-donating protein A (truncated formate dehydrogenase alpha subunit FdhA homologue); F420-dependent electron-donating protein B (formate dehydrogenase beta subunit FdhB homologue); F420-dependent electron-donating protein C (MvhD homologue)
The experiment in a line: cryo-EM structure. In kind it is binding. Conditions: electron-bifurcating FAD site of HdrA; co-purified native cofactor.

In test [2] the target is T2, Elp–Hdr complex (ElpABC–HdrABC)2, ElpB site (Methanothermobacter marburgensis, UniProt D9PY03).
T2 construct: gene fdhB; with F420-dependent electron-donating protein A (truncated formate dehydrogenase alpha subunit FdhA homologue); F420-dependent electron-donating protein C (MvhD homologue); H(2):CoB-CoM heterodisulfide,ferredoxin reductase subunit A; H(2):CoB-CoM heterodisulfide,ferredoxin reductase subunit B; H(2):CoB-CoM heterodisulfide,ferredoxin reductase subunit C
The experiment in a line: cryo-EM structure. The following applies: FAD-binding site of ElpB; co-purified native cofactor; states 1 and 2.

T2 sequence (D9PY03 1-380): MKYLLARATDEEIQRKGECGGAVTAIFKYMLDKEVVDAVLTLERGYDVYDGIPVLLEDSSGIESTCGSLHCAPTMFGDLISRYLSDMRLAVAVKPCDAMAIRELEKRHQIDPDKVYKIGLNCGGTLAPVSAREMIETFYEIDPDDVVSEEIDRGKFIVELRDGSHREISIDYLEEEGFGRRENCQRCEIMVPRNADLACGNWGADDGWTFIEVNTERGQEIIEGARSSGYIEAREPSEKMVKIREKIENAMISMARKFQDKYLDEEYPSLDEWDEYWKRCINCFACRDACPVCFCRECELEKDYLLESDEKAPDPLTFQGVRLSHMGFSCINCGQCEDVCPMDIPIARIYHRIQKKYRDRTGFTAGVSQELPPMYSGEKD
T2 sequence (D9PY04 1-342 partner): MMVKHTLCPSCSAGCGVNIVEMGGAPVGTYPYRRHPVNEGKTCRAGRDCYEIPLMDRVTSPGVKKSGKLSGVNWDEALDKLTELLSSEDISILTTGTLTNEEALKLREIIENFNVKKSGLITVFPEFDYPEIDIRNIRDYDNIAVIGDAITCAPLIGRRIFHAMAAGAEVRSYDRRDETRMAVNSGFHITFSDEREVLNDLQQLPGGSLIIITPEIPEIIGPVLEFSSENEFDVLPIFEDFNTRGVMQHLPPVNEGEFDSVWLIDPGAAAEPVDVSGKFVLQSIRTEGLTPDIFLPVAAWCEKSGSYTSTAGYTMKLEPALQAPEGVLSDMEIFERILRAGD
T2 sequence (D9PY02 1-136 partner): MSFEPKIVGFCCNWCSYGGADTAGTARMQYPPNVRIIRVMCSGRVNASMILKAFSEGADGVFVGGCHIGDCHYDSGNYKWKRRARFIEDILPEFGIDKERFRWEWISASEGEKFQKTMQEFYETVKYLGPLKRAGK
T2 sequence (Q50756 2-659 partner): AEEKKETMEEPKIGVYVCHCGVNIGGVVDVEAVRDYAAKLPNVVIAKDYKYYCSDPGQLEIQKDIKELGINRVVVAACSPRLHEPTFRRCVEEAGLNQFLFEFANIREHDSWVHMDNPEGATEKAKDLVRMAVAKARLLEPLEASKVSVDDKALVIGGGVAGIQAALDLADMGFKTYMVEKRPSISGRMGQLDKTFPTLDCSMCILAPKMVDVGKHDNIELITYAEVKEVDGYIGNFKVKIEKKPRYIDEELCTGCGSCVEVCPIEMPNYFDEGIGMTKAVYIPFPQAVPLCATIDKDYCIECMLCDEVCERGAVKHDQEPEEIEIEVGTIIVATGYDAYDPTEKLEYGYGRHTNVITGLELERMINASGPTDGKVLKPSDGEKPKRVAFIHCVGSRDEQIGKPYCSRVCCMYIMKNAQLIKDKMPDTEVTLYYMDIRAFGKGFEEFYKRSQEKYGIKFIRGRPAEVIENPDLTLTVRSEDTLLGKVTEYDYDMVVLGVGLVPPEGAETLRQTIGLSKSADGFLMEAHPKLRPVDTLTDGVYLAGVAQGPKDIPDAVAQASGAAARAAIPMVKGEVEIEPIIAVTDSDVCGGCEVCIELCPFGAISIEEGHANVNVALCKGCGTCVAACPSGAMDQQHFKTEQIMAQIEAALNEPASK
T2 sequence (Q50755 whole entry partner, the tested form may be a part): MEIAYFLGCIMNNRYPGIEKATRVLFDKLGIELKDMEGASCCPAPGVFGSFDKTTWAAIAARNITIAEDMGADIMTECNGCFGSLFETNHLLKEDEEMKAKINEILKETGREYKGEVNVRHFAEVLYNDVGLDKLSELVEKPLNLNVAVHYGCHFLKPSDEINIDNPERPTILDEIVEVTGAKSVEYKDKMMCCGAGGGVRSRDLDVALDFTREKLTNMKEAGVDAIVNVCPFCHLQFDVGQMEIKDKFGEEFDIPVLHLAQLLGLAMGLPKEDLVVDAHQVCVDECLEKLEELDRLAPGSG
T2 sequence (Q50754 2-185 partner): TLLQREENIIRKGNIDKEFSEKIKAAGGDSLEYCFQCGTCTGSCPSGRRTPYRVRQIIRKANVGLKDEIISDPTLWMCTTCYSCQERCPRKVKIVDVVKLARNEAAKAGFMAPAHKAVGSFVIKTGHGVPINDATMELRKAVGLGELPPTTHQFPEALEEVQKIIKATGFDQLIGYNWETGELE
T1 sequence (Q50756 2-659): as the sequence (Q50756 2-659 partner) above
T1 sequence (Q50755 whole entry partner, the tested form may be a part): as the sequence (Q50755 whole entry partner, the tested form may be a part) above
T1 sequence (Q50754 2-185 partner): as the sequence (Q50754 2-185 partner) above
T1 sequence (D9PY04 1-342 partner): as the sequence (D9PY04 1-342 partner) above
T1 sequence (D9PY03 1-380 partner): as the sequence (D9PY03 1-380) above
T1 sequence (D9PY02 1-136 partner): as the sequence (D9PY02 1-136 partner) above

On to `Cc1cc2nc3c(=O)[nH]c(=O)nc-3n(C[C@H](O)[C@H](O)[C@H](O)COP(=O)(O)OP(=O)(O)OC[C@H]3O[C@@H](n4cnc5c(N)ncnc54)[C@H](O)[C@@H]3O)c2cc1C` [FAD], for which the cryo-EM structure result is “Cofactors including the electron-bifurcating FAD of HdrA” in test [1]; “the positions of FAD and the four [4Fe–4S] clusters are conserved” in test [2].
